{
  "source": "patent US20250034620A1",
  "about": "(priority 2022, published 2025)",
  "molecular_target": "H.c.LSU group II intron",
  "format": "biochemical, Histoplasma capsulatum",
  "details": "logistic fit of kobs against 14 inhibitor concentrations, 5 nM to 300 μM; MB18 readout; 37° C.; read-out: KI (inhibition constant) of the self-splicing reaction",
  "note": "Values joined by “and” are separate entries in the source; they are usually repeats but may differ in a detail not shown here. Equal entries are not always repeated.",
  "data": [
    {"smiles": "O=C1c2c(O)ccc(O)c2C(=O)c2c(NCCNCCO)ccc(NCCNCCO)c21", "note": "[mitoxantrone]", "values": [
      {"measurement": "Ki", "value": "1790 nM and 2240 nM"}
    ]}
  ]
}
